Experiments:
Cellular ERK5 Activity = target: T1, Cellular ERK5 Activity (Homo sapiens, UniProt Q13164); assay: Inhibition of Cellular ERK5 Activity (cell-based assay, MEF2 luciferase reporter in SN12C cells); conditions: renal cancer cell line SN12C, doxycycline-induced MEK5DD, 0.3-10000 nM, mean where repeated
T1 construct: MEF2-response-element luciferase reporter (pGreenFire1)
Experimental: (§1) Two assays were performed to assess the ERK5 inhibitory activity of compounds of the Examples, a cell-based assay and a cell-free biochemical assay. Where repeat measurements were taken, the value reported is a mean average.
Inhibition of Cellular ERK5 Activity
The renal cancer cell line SN12C was transduced by a lentivirus pGreenFire1 MEF2 EF1 Neo (ref TR030VA-N) from SBI using standard infection protocol. pGreenFire1 MEF2 EF1 Neo allows the expression of luciferase gene under the control of minimal promoter with MEF2 transcriptional response elements. Cells harboring the reporter construct were selected by geneticin treatment. The selected cells were then transposed by a piggyback based plasmid pCM4007 allowing the expression of constitutively activated MEK5DD under control of TREG3 promoter, a doxycycline regulated promoter. Transposed cells were selected by puromycin treatment. Upon doxycycline treatment (1 μg/ml) MEK5DD was expressed. MEK5DD activates ERK5 that phosphorylates MEF2C protein. Activated MEF2C protein can bind to its transcriptional response elements. Then the luciferase is expressed. In a 96-well plate (96F nuncleon ref137101 thermofisher), 50,000 cells were inoculated in 142.5 μl of RPMI medium containing 10% fetal calf serum, 1% glutamine, and 1 μg/ml doxycycline. After 24 hours, compounds were added in 7.5 μl culture medium (with 2% DMSO to give a final concentration of 0.1%) in order to obtain the desired concentration (0.3-10000 nM). The luciferase activity was measured using the Kit Bright Glo Luminescent Cell Assay Cat E2610 (Promega) according to the manufacturer's protocol. Luminescence was determined using 0.2 second reading/well using a Tecan SPARK. IC50 values were calculated using XLFIT5 for Microsoft Excel using method 205. The IC50 values represent the concentration of compound which inhibits the measurable luminescence signal by 50% as compared to DMSO-treated control cells.

[1] = target: T2, activated catalytic domain of protein ERK5 (Homo sapiens, UniProt Q13164); assay: Cell-Free Assay of ERK5 Inhibition (Time-Resolved Forster Resonance Energy Transfer); assay type: biochemical; conditions: ERK5 4 nM, 1 mM ATP, 1 μM biotinylated 4EBP1 peptide, 30 min at 37° C.; TR-FRET; mean where repeated
T2 construct: purchased CarnaBiosciences #04-146
Experimental: as §1
Cell-Free Assay of ERK5 Inhibition
An assay was performed to measure the capacity of each compound to inhibit ERK5 enzymatic activity. Compound potency was evaluated by Time-Resolved Forster Resonance Energy Transfer (FRET system). The activated catalytic domain of protein ERK5 (CarnaBiosciences #04-146) was mixed at 4 nM with varying concentrations of compound and incubated for 30 minutes at room temperature. A mixture of 1 mM ATP and 1 μM biotinylated synthetic peptide was added (Biosyntan GmbH). This synthetic peptide represents amino acids 30-52 of Eukaryotic translation initiation factor 4E-binding protein 1 (see, e.g., the sequence under accession No. NP_004086.1) biotinylated at the N-terminus. After 30 minutes at 37° C., the peptide phosphorylation by ERK5 was measured by addition of FRET reagents consisting of 12.5 µg/ml Streptavidin-XL665, 1 nM Anti-P-4EBP1 antibody and 300 ng/ml Anti-rabbit-K antibody. Following 90 minutes at room temperature fluorescent signals were read on the Pherastar FSX multimod detector from BMG Labtech (Exc° 340 nm, Em1 620 nm, Em2 665 nm). The IC50 values represent the concentration of compound which inhibits the measurable fluorescence signal by […] as compared to the DMSO only control.

T1 sequence (Q13164 whole entry): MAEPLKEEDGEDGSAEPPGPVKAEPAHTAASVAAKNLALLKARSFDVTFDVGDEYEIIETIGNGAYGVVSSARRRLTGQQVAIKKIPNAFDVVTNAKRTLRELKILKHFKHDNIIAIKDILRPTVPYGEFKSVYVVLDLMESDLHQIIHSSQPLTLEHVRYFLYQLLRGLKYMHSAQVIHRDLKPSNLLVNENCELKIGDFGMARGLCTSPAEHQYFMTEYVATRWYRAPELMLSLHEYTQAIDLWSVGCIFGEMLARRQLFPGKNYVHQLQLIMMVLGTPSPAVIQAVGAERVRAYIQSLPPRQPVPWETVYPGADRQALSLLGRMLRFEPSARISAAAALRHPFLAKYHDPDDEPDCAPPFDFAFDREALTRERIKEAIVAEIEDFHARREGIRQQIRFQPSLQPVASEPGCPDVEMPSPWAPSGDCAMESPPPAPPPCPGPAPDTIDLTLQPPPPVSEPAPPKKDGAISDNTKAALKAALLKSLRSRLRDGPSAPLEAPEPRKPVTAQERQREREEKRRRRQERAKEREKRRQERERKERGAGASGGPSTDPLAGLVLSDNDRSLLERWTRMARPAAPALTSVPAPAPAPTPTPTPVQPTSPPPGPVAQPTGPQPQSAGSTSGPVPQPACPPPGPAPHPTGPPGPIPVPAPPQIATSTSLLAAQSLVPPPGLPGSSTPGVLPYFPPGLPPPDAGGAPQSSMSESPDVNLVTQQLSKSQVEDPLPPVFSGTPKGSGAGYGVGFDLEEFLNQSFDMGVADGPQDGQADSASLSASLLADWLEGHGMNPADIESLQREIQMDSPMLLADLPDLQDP
T2 sequence (Q13164 55-347 limits assumed): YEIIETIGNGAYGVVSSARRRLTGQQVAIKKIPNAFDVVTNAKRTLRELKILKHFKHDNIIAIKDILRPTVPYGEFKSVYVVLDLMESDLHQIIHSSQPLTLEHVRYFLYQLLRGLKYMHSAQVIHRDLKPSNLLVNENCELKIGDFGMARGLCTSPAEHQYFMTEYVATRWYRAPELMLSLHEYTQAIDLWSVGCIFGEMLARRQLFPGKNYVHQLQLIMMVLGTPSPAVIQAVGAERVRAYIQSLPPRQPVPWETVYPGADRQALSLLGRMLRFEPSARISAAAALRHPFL

IC50 (Cellular ERK5 Activity) [nM] | IC50 [1] [nM] | Compound
279 | 1140 | O=C(c1ccc(C(F)(F)C(F)(F)F)cc1)N1CCC(c2c[nH]c3ncc(C4CCOCC4)nc23)CC1 [Example 22, [4-(1,1,2,2,2-Pentafluoroethyl)phenyl]-[4-(2-tetrahydropyran-4-yl-5H-pyrrolo[2,3-b]pyrazin-7-yl)-1-piperidyl]methanone]
4800 | 13300 | O=C(C1CCCCC1)N1CCC(c2c[nH]c3ncc(C4CCOCC4)nc23)CC1 [Example 23, Cyclohexyl-[4-(2-tetrahydropyran-4-yl-5H-pyrrolo[2,3-b]pyrazin-7-yl)-1-piperidyl]methanone]
149 | 624 | O=C(c1ccc(S(F)(F)(F)(F)F)cc1F)N1CCC(c2c[nH]c3ncc(C4CCOCC4)nc23)CC1 [Example 26, [2-Fluoro-4-(pentafluoro-λ^6-sulfanyl)phenyl]-[4-(2-tetrahydropyran-4-yl-5H-pyrrolo[2,3-b]pyrazin-7-yl)-1-piperidyl]methanone]
5430 | 5560 | Nc1cc(OC(F)(F)F)ccc1C(=O)N1CCC(c2c[nH]c3ncc(NC4COC4)nc23)CC1 [Example 27, [2-amino-4-(trifluoromethoxy)phenyl]-[4-[2-(oxetan-3-ylamino)-5H-pyrrolo[2,3-b]pyrazin-7-yl]-1-piperidyl]methanone]
190 | 405 | Nc1cc(OC(F)(F)F)ccc1C(=O)N1CCC(c2c[nH]c3ncc(O[C@@H]4CCOC4)nc23)CC1 [Example 28, [2-amino-4-(trifluoromethoxy)phenyl]-[4-[2-[(3R)-tetrahydrofuran-3-yl]oxy-5H-pyrrolo[2,3-b]pyrazin-7-yl]-1-piperidyl]methanone]
215 | 399 | Nc1cc(OC(F)(F)F)ccc1C(=O)N1CCC(c2c[nH]c3ncc(O[C@H]4CCOC4)nc23)CC1 [Example 29, [2-amino-4-(trifluoromethoxy)phenyl]-[4-[2-[(3S)-tetrahydrofuran-3-yl]oxy-5H-pyrrolo[2,3-b]pyrazin-7-yl]-1-piperidyl]methanone]
86 | 189 | CN1CCN(c2cnc3[nH]cc(C4CCN(C(=O)c5ccc(OC(F)(F)F)cc5)CC4)c3n2)CC1 [Example 31, [4-[2-(4-methylpiperazin-1-yl)-5H-pyrrolo[2,3-b]pyrazin-7-yl]-1-piperidyl]-[4-(trifluoromethoxy)phenyl]methanone, formic acid]
166 | 993 | O=C(c1ccc(OC(F)(F)F)cc1)N1CCC(c2c[nH]c3ncc(NC4CCOCC4)nc23)CC1 [Example 38, [4-[2-(tetrahydropyran-4-ylamino)-5H-pyrrolo[2,3-b]pyrazin-7-yl]-1-piperidyl]-[4-(trifluoromethoxy)phenyl]methanone]
37 | 307 | Nc1cc(OC(F)(F)F)ccc1C(=O)N1CCC(c2c[nH]c3ncc(NC4CCOCC4)nc23)CC1 [Example 39, [2-amino-4-(trifluoromethoxy)phenyl]-[4-[2-(tetrahydropyran-4-ylamino)-5H-pyrrolo[2,3-b]pyrazin-7-yl]-1-piperidyl]methanone]
180 | 1010 | O=C(c1ccc(OC(F)(F)F)cc1)N1CCC(c2c[nH]c3ncc(N4CCOCC4)nc23)CC1 [Example 40, [4-(2-morpholino-5H-pyrrolo[2,3-b]pyrazin-7-yl)-1-piperidyl]-[4-(trifluoromethoxy)phenyl]methanone]
308 | > 30000 | O=C(c1ccc(OC(F)(F)F)cc1)N1CCC(c2c[nH]c3ncc(N4CCC(F)(F)CC4)nc23)CC1 [Example 41, [4-[2-(4,4-difluoro-1-piperidyl)-5H-pyrrolo[2,3-b]pyrazin-7-yl]-1-piperidyl]-[4-(trifluoromethoxy)phenyl]methanone]
480 | > 30000 | O=C(c1ccc(C(O)(C(F)(F)F)C(F)(F)F)cc1)N1CCC(c2c[nH]c3ncc(C4CCOCC4)nc23)CC1 [Example 42, [4-(2-tetrahydropyran-4-yl-5H-pyrrolo[2,3-b]pyrazin-7-yl)-1-piperidyl]-[4-[2,2,2-trifluoro-1-hydroxy-1-(trifluoromethyl)ethyl]phenyl]methanone]
272 | 639 | Nc1cc(OC(F)(F)F)ccc1C(=O)N1CCC(c2c[nH]c3ncc(OC4COC4)nc23)CC1 [Example 44, [2-amino-4-(trifluoromethoxy)phenyl]-[4-[2-(oxetan-3-yloxy)-5H-pyrrolo[2,3-b]pyrazin-7-yl]-1-piperidyl]methanone]

The next lines start with the compound.

Compound | IC50 (Cellular ERK5 Activity) [nM] | IC50 [1] [nM]
Nc1cc(OC(F)(F)F)ccc1C(=O)N1CCC(c2c[nH]c3ncc(C4CCN(C5CC5)CC4)nc23)CC1 [Example 10, [2-Amino-4-(trifluoromethoxy)phenyl]-[4-[2-(1-cyclopropyl-4-piperidyl)-5H-pyrrolo[2,3-b]pyrazin-7-yl]-1-piperidyl]methanone] | 28 | 23
O=C(c1ccc(OC(F)(F)F)cc1)N1CCC(c2c[nH]c3ncc(C4CCN(C5CC5)CC4)nc23)CC1 [Example 11, [4-[2-(1-Cyclopropyl-4-piperidyl)-5H-pyrrolo[2,3-b]pyrazin-7-yl]-1-piperidyl]-[4-(trifluoromethoxy)phenyl]methanone] | 112 | 76
CN1CCC(c2cnc3[nH]cc(C4CCN(C(=O)c5ccc(S(F)(F)(F)(F)F)cc5)CC4)c3n2)CC1 [Example 15, [4-[2-(1-Methyl-4-piperidyl)-5H-pyrrolo[2,3-b]pyrazin-7-yl]-1-piperidyl]-[4-(pentafluoro-λ^6-sulfanyl)phenyl]methanone] | 96 | 98
CN1CCC(c2cnc3[nH]cc(C4CCN(C(=O)c5ccc(S(F)(F)(F)(F)F)cc5N)CC4)c3n2)CC1 [Example 16, [2-Amino-4-(pentafluoro-λ^6-sulfanyl)phenyl]-[4-[2-(1-methyl-4-piperidyl)-5H-pyrrolo[2,3-b]pyrazin-7-yl]-1-piperidyl]methanone] | 25 | 38
O=C(c1ccc(S(F)(F)(F)(F)F)cc1)N1CCC(c2c[nH]c3ncc(C4CCOCC4)nc23)CC1 [Example 17, [4-(pentafluoro-λ^6-sulfanyl)phenyl]-[4-(2-tetrahydropyran-4-yl-5H-pyrrolo[2,3-b]pyrazin-7-yl)-1-piperidyl]methanone] | 140 | 578
Nc1cc(S(F)(F)(F)(F)F)ccc1C(=O)N1CCC(c2c[nH]c3ncc(C4CCOCC4)nc23)CC1 [Example 18, [2-Amino-4-(pentafluoro-λ^6-sulfanyl)phenyl]-[4-(2-tetrahydropyran-4-yl-5H-pyrrolo[2,3-b]pyrazin-7-yl)-1-piperidyl]methanone] | 34 | 330
Nc1cc(S(F)(F)(F)(F)F)ccc1C(=O)N1CCC(c2c[nH]c3ncc(C4CCN(C5CC5)CC4)nc23)CC1 [Example 19, [2-Amino-4-(pentafluoro-λ^6-sulfanyl)phenyl]-[4-[2-(1-cyclopropyl-4-piperidyl)-5H-pyrrolo[2,3-b]pyrazin-7-yl]-1-piperidyl]methanone] | 94 | 176
O=C(c1ccc(S(F)(F)(F)(F)F)cc1)N1CCC(c2c[nH]c3ncc(C4CCN(C5CC5)CC4)nc23)CC1 [Example 20, [4-[2-(1-Cyclopropyl-4-piperidyl)-5H-pyrrolo[2,3-b]pyrazin-7-yl]-1-piperidyl]-[4-(pentafluoro-λ^6-sulfanyl)phenyl]methanone] | 201 | 282
O=C(c1ccc(OC2CC2)cc1)N1CCC(c2c[nH]c3ncc(C4CCOCC4)nc23)CC1 [Example 21, [4-(Cyclopropoxy)phenyl]-[4-(2-tetrahydropyran-4-yl-5H-pyrrolo[2,3-b]pyrazin-7-yl)-1-piperidyl]methanone] | 352 | 359

Source: patent US20260308157A1, “Pyrrolopyrazine Compounds, Preparation Thereof and Therapeutic Uses Thereof” (Sanofi, priority 2023, published 2026)
